Consider two molecules from publication PMC8304783, “Antiadhesive Properties of Imidazolium Ionic Liquids Based on (−)-Menthol Against Candida spp” (International Journal of Molecular Sciences, 2021).

Holding throughout (format): cell-based
In one assay the test system is C. albicans isolates. Put plainly: Detachment of adherent clinical isolates from polystyrene (isolates taken together). As to conditions: in most cases, 1, 2 and 4 times MIC90. On the procedure: (§1) Post-adherence treatment with ILs was performed in a similar manner to that described previously by our team. Candida spp. suspensions were prepared by centrifuging YPD-grown cultures and resuspending fungal mass in PBS to an OD600 = 0.6. Sterile 96-well plates were inoculated with the prepared suspensions and incubated for 2 h at 37 °C to induce fungal adhesion. Afterwards, adherent cells were washed with PBS to remove planktonic cells and treated with ILs (concentrations equivalent to 1, 2 or 4 × MIC90 for each fungi) for 2 h at 37 °C. Then, each well was washed with PBS and adherent cells were fixed with 0.1% CV solution for 5 min, and washed with PBS. Cells were then treated with a solution of isopropanol 0.04 N HCL with 0.1% SDS to permeabilize adherent cells and release the CV dye. The absorbance of CV was measured at 590 nm (ASYS UVM 340 Biogenet). The percentage of cells that were removed was determined in comparison to adherent cells treated with PBS only (designated 100% adhesion).
(§2) The effect of imidazolium ILs based on of (1R,2S,5R)‐(−)‐menthol was evaluated on clinical, fluconazole(FLC)‐resistant and FLC‐sensitive C. albicans isolates. C. albicans Gu4 and Gu5 strains were isolated from a patient before and after fluconazole administration, respectively.
(§3) Azole‐resistance of Gu5 origins in overexpression of CDR1 and CD R2. C. albicans B3 and B4 strains […]

The test system of the next assay is C. albicans B4. Put plainly: Detachment of adherent clinical isolates from polystyrene. As to conditions: isolate B4 on polystyrene; highest concentration (4 x MIC). How it is done: as §1, §2, §3
(§4) Azole‐resistance of B4 results from overexpression of MDR1. The strains were generous gifts from Prof. S. Milewski (Gdańsk, Poland) and Prof. J. Morschhäuser (Wurzburg, Germany). They are originally referenced in: Franz, R., Ruhnke, M. & Morschhäuser, J. Molecular aspects of fluconazole resistance development in Candida albicans. Mycoses 42, 453–458, (1999).
(§5) Table S1 summarizes the minimal inhibitory and fungicidal concentration (MIC90 and MFC, respectively) values of ILs tested against the C. albicans isolates (for ILs structures see section 5.2. in the mai n text). No difference in case of MIC90 values between the strains was observed. […]

Another assay deals with C. albicans Gu4. Described as above. As to conditions: isolate Gu4 on polystyrene; regardless of the concentration (1, 2, 4 x MIC). On the procedure: as §1, §2, §3, §4, §5
For a further assay, the system named is C. albicans B3. Described as above. As to conditions: isolate B3 on polystyrene; highest concentration (4 x MIC). On the procedure: as §1, §2, §3, §4, §5

Each structure is given as a SMILES string.

On to `CCCCCCCCCn1cc[n+](CO[C@@H]2C[C@H](C)CC[C@H]2C(C)C)c1` [1a, 1-[(1R,2S,5R)-(−)-menthoxymethyl]-3-nonylimidazolium chloride], for which the “Influence on adherent properties of C. albicans isolates” value in the assay with C. albicans isolates is recorded as “did not influence”.

For `CCCCCCCCCCn1cc[n+](CO[C@@H]2C[C@H](C)CC[C@H]2C(C)C)c1` [1b, 3-decyl-1-[(1R,2S,5R)-(−)-menthoxymethyl]imidazolium chloride], the Reduction of adhesion is listed as ~ 10% with C. albicans B4, ~ 20% in the assay with C. albicans Gu4 and ~ 10% in the assay on C. albicans B3.
